Measurements as given in patent US8796289B2 (AbbVie Inc., priority 2011, dated 2014).

The molecules below were run against GST-tagged-Wee1 kinase (Homo sapiens, UniProt P30291) (assay: Wee1 time-resolved fluorescence equilibrium binding assay (displacement of Oregon Green-labeled ATP-competitive kinase probe)). Settings: not given.
Experimental: Wee1 kinase was assayed using a time-resolved fluorescence equilibrium binding assay monitoring displacement of a rapidly reversible Oregon Green-labeled ATP-competitive kinase probe (N-(2-(2-(2-(4-(4-(5-chloro-4-(2-(1-hydroxycyclobutyl)thiazol-5-yl)-1H-pyrrolo[2,3-b]pyridin-2-yl)phenyl)piperazin-1-yl)ethoxy)ethoxy)ethyl)-2′,7′-difluoro-3′,6′-dihydroxy-3-oxo-3H-spiro[isobenzofuran-1,9′-xanthene]-5-carboxamide) by competitive Wee1 inhibitors.

Sequence of GST-tagged-Wee1 kinase (P30291 whole entry): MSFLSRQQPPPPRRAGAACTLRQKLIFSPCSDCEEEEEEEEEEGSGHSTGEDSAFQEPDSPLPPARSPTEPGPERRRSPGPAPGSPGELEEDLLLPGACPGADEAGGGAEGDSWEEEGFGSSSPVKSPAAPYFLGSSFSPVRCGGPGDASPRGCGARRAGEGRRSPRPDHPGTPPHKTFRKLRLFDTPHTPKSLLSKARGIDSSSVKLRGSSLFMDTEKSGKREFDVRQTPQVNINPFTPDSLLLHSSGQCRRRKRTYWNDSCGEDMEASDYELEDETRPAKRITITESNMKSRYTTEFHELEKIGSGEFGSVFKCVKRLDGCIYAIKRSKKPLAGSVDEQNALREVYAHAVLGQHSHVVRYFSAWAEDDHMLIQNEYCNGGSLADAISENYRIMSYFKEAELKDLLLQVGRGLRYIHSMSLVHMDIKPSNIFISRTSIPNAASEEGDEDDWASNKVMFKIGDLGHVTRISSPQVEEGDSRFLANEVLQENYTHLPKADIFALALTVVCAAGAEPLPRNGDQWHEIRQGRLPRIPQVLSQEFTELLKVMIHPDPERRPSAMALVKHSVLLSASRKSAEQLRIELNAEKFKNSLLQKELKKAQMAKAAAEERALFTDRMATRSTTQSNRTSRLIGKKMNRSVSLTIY

Going from `Cn1cnc(-c2nn(-c3ncccc3Cl)c(=O)c3cnc(Nc4ccc5c(c4)CNCC54CC4)nc23)c1` [Example 352, 6-(3-chloropyridin-2-yl)-2-(2′,3′-dihydro-1′H-spiro[cyclopropane-1,4′-isoquinolin]-7′-ylamino)-8-(1-methyl-1H-imidazol-4-yl)pyrimido[4,5-d]pyridazin-5(6H)-one] to `O=c1c2cnc(Nc3ccc4c(c3)CNCC43CC3)nc2c(CO)nn1-c1c(Cl)cccc1Cl` [Example 433, 6-(2,6-dichlorophenyl)-2-(2′,3′-dihydro-1′H-spiro[cyclopropane-1,4′-isoquinolin]-7′-ylamino)-8-(hydroxymethyl)pyrimido[4,5-d]pyridazin-5(6H)-one], the Ki falls from 12 nM to 0.15 nM (80-fold).

Going from `Cc1ccccc1-n1nc(-c2ccco2)c2nc(Nc3ccc(CN(C)C)cc3)ncc2c1=O` [Example 106, 2-({4-[(dimethylamino)methyl]phenyl}amino)-8-(2-furyl)-6-(2-methylphenyl)pyrimido[4,5-d]pyridazin-5(6H)-one] to `Cc1cc(Nc2ncc3c(=O)n(-c4ccccc4C)nc(-c4ccco4)c3n2)ccc1N1CCN(C(C)C)CC1` [Example 133, 8-(2-furyl)-2-{[4-(4-isopropylpiperazin-1-yl)-3-methylphenyl]amino}-6-(2-methylphenyl)pyrimido[4,5-d]pyridazin-5(6H)-one], the Ki falls from 5 nM to 3 nM (1.7-fold).

Going from `CN1CCN(c2ccc(Nc3ncc4c(=O)n(-c5c(Cl)cccc5Cl)nc(C5CCC5)c4n3)cc2)CC1` [Example 278, 8-cyclobutyl-6-(2,6-dichlorophenyl)-2-{[4-(4-methylpiperazin-1-yl)phenyl]amino}pyrimido[4,5-d]pyridazin-5(6H)-one] to `CC(C)N1CCCC(c2nn(-c3c(Cl)cccc3Cl)c(=O)c3cnc(Nc4ccc(N5CCN(C)CC5)cc4)nc23)C1` (stereo not shown) [Example 147, 6-(2,6-dichlorophenyl)-8-(1-isopropylpiperidin-3-yl)-2-{[4-(4-methylpiperazin-1-yl)phenyl]amino}pyrimido[4,5-d]pyridazin-5(6H)-one], the Ki rises from 0.83 nM to 12 nM (14-fold). The first binds more tightly here.

Going from `CN1CCCC(n2nc(-c3ccccn3)c3nc(Nc4ccc5c(c4)CNCC5(C)C)ncc3c2=O)C1` (stereo not shown) [Example 332, 2-[(4,4-dimethyl-1,2,3,4-tetrahydroisoquinolin-7-yl)amino]-6-(1-methylpiperidin-3-yl)-8-(pyridin-2-yl)pyrimido[4,5-d]pyridazin-5(6H)-one] to `CS(=O)(=O)N1Cc2cc(Nc3ncc4c(=O)n(-c5c(Cl)cccc5Cl)nc(-c5ccccn5)c4n3)ccc2C2(CC2)C1` [Example 377, 6-(2,6-dichlorophenyl)-2-{[2′-(methylsulfonyl)-2′,3′-dihydro-1′H-spiro[cyclopropane-1,4′-isoquinolin]-7′-yl]amino}-8-(pyridin-2-yl)pyrimido[4,5-d]pyridazin-5(6H)-one], the Ki falls from 490 nM to 1.3 nM (380-fold). The second binds more tightly here.

First: Cc1nn(-c2c(Cl)cccc2Cl)c(=O)c2cnc(Nc3ccc4c(c3)CNC4(C)C)nc12 [Example 489, 6-(2,6-dichlorophenyl)-2-[(1,1-dimethyl-2,3-dihydro-1H-isoindol-5-yl)amino]-8-methylpyrimido[4,5-d]pyridazin-5(6H)-one]
Second: Cc1nn(-c2c(Cl)cccc2Cl)c(=O)c2cnc(Nc3ccc4c(c3)CN(S(C)(=O)=O)CC4(C)C)nc12 [Example 441, 6-(2,6-dichlorophenyl)-2-{[4,4-dimethyl-2-(methylsulfonyl)-1,2,3,4-tetrahydroisoquinolin-7-yl]amino}-8-methylpyrimido[4,5-d]pyridazin-5(6H)-one]
The Ki of the first is 8.1-fold lower: 0.089 nM for the first, 0.72 nM for the second.

First: Cc1nn(-c2c(Cl)cccc2Cl)c(=O)c2cnc(Nc3ccc4c(c3)CN(S(N)(=O)=O)CC43CC3)nc12 [Example 436, 7′-{[6-(2,6-dichlorophenyl)-8-methyl-5-oxo-5,6-dihydropyrimido[4,5-d]pyridazin-2-yl]amino}-1′H-spiro[cyclopropane-1,4′-isoquinoline]-2′(3′H)-sulfonamide]
Second: CCc1nn(-c2c(Cl)cccc2Cl)c(=O)c2cnc(Nc3ccc4c(c3)CN(C)CC43CC3)nc12 [Example 402, 6-(2,6-dichlorophenyl)-8-ethyl-2-[(2′-methyl-2′,3′-dihydro-1′H-spiro[cyclopropane-1,4′-isoquinolin]-7′-yl)amino]pyrimido[4,5-d]pyridazin-5(6H)-one]
The Ki of the first is 2.8-fold higher: 0.65 nM for the first, 0.23 nM for the second.

Going from `O=c1c2cnc(Nc3ccc(N4CCNCC4)cc3)nc2c(-c2ccncc2)nn1-c1c(F)cccc1Cl` [Example 297, 6-(2-chloro-6-fluorophenyl)-2-{[4-(piperazin-1-yl)phenyl]amino}-8-(pyridin-4-yl)pyrimido[4,5-d]pyridazin-5(6H)-one] to `CN1CCN(c2ccc(Nc3ncc4c(=O)n(-c5c(Cl)cccc5Cl)nc(-c5cccc(F)c5)c4n3)cc2)CC1` [Example 84, 6-(2,6-dichlorophenyl)-8-(3-fluorophenyl)-2-{[4-(4-methylpiperazin-1-yl)phenyl]amino}pyrimido[4,5-d]pyridazin-5(6H)-one], the Ki falls from 0.19 nM to 0.1 nM (1.9-fold). The second binds more tightly here.

Going from `COc1cc(Nc2ncc3c(=O)n(-c4ccccc4C)nc(-c4ccco4)c3n2)ccc1N1CCN(C(C)C)CC1` [Example 138, 8-(2-furyl)-2-{[4-(4-isopropylpiperazin-1-yl)-3-methoxyphenyl]amino}-6-(2-methylphenyl)pyrimido[4,5-d]pyridazin-5(6H)-one] to `CC(=O)c1cc(-c2nn(-c3c(Cl)cccc3Cl)c(=O)c3cnc(Nc4ccc(N5CCN(C)CC5)cc4)nc23)ccn1` [Example 219, 8-(2-acetylpyridin-4-yl)-6-(2,6-dichlorophenyl)-2-{[4-(4-methylpiperazin-1-yl)phenyl]amino}pyrimido[4,5-d]pyridazin-5(6H)-one], the Ki falls from 1.5 nM to 0.1 nM (15-fold). The second binds more tightly here.

Going from `CN1CCN(c2ccc(Nc3ncc4c(=O)n(-c5c(Cl)cccc5Cl)nc(CF)c4n3)cc2)CC1` [Example 419, 6-(2,6-dichlorophenyl)-8-(fluoromethyl)-2-{[4-(4-methylpiperazin-1-yl)phenyl]amino}pyrimido[4,5-d]pyridazin-5(6H)-one] to `CN1CCN(c2ccc(Nc3ncc4c(=O)n(C)nc(CCc5ccccc5)c4n3)cc2)CC1` [Example 6, 6-methyl-2-{[4-(4-methylpiperazin-1-yl)phenyl]amino}-8-(2-phenylethyl)pyrimido[4,5-d]pyridazin-5(6H)-one], the Ki rises from 0.19 nM to 680 nM (3600-fold). The first binds more tightly here.

First: CN1CCN(c2ccc(Nc3ncc4c(=O)n(-c5ccccn5)nc(C5CC(F)(F)C5)c4n3)cc2)CC1 [Example 197, 8-(3,3-difluorocyclobutyl)-2-{[4-(4-methylpiperazin-1-yl)phenyl]amino}-6-(pyridin-2-yl)pyrimido[4,5-d]pyridazin-5(6H)-one]
Second: CN1CCN(c2ccc(Nc3ncc4c(=O)n(CC(F)(F)F)nc(CCc5ccccc5)c4n3)cc2)CC1 [Example 10, 2-{[4-(4-methylpiperazin-1-yl)phenyl]amino}-8-(2-phenylethyl)-6-(2,2,2-trifluoroethyl)pyrimido[4,5-d]pyridazin-5(6H)-one]
The Ki of the first is lower: 100 nM for the first, over 3140 nM for the second.

In the case of `CN1Cc2cc(Nc3ncc4c(=O)n(-c5c(Cl)cccc5Cl)nc(-c5nccn5C)c4n3)ccc2C2(CC2)C1` [Example 357, 6-(2,6-dichlorophenyl)-2-[(2′-methyl-2′,3′-dihydro-1′H-spiro[cyclopropane-1,4′-isoquinolin]-7′-yl)amino]-8-(1-methyl-1H-imidazol-2-yl)pyrimido[4,5-d]pyridazin-5(6H)-one], the Ki is reported as 0.87 nM.

Same assay, conditions: read-out: Wee-1 inhibition Ki

Molecule `Cc1nn(-c2c(Cl)cccc2Cl)c(=O)c2cnc(Nc3ccc4c(c3)CNCC4)nc12` [Example 395] has a Ki of 1 nM.
